Test results: patent US20260217767A1, “NOVEL A4B7 THIOETHER PEPTIDE DIMER ANTAGONISTS” (Protagonist Therapeutics, Inc., priority 2014, published 2026)
Where a SMILES comes first, the peptide text is derived from it.

Key:
rh integrin α4β7 = biological target: T1, rh integrin α4β7 (Homo sapiens, UniProt P13612+P26010); test: α4β7-MAdCAM Competition ELISA; assay type: binding; conditions: thioether monomer peptides, Table 6; read-out: ELISA A4B7
T1 construct: purchased R&D Systems 5397-A30
T1 sequence (P13612 34-977 limits assumed): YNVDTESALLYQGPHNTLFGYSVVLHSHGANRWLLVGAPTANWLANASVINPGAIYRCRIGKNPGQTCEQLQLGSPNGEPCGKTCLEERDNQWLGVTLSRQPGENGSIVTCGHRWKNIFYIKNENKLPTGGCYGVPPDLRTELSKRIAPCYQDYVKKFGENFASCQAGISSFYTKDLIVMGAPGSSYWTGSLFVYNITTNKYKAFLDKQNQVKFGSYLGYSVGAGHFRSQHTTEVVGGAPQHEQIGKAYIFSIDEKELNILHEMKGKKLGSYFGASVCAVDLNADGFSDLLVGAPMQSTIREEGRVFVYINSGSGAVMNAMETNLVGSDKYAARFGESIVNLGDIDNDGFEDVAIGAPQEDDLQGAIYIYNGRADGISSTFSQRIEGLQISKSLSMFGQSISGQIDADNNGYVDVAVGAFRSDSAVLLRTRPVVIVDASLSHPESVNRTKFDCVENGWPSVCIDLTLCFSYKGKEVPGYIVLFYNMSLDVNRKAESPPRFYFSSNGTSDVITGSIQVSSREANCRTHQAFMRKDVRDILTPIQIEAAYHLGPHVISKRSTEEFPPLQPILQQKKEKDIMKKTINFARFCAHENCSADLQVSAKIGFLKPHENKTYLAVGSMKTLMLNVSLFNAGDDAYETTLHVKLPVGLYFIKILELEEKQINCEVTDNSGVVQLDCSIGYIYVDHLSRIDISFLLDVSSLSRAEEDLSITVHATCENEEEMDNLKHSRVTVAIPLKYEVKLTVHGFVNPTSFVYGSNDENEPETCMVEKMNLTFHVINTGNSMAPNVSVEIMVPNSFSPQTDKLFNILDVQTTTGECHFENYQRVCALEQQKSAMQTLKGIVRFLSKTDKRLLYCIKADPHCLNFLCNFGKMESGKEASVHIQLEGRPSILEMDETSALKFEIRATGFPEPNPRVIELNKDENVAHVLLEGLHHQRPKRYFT
T1 sequence (P26010 20-723 limits assumed): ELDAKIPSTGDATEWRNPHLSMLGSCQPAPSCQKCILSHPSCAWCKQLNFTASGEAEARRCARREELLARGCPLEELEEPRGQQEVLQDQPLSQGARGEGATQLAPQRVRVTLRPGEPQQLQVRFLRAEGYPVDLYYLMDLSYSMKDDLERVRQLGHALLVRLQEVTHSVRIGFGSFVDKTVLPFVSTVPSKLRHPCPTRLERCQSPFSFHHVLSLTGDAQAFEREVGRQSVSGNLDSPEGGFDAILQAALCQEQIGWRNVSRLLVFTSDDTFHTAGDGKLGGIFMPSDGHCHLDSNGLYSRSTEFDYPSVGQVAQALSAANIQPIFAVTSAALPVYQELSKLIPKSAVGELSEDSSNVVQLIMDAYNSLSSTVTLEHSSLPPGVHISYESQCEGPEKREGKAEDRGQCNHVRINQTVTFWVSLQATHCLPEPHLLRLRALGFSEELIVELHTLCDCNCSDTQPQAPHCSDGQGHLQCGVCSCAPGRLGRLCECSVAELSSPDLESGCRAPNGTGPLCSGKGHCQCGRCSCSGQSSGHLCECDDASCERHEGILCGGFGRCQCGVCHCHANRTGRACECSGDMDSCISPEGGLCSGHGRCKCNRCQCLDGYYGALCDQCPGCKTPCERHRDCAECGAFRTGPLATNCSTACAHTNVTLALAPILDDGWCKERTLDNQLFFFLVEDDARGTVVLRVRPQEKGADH
Outline: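 Recombinant human α4β7 captured on nickel-coated plates, then incubated 1 h at room temperature with serially diluted peptides (final top 10 μM) and 10 nM final MAdCAM-1 in Tris pH 7.6 buffer with 1 mM MnCl2 or MgCl2. Bound MAdCAM-1 detected with anti-human IgG1-HRP and TMB, absorbance at 450 nm.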

[1] = Simulated Intestinal Fluid (SIF) Stability Assay; assay type: in vitro ADME; conditions: pig, 37° C., monomers, Table 6; for half-life at 22 μM: simulated intestinal fluid (SIF) with 1% porcine pancreatin, pH 6.5, porcine pancreatin; for half-life: porcine pancreatin
Outline: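 Peptide at 22 μM final was incubated at 37° C in blank FaSSIF pH 6.5 with 1% porcine pancreatin. Timed samples were quenched in acetonitrile/methanol/formic acid with internal standard and analysed by LC-MS/MS. Half-lives came from first-order exponential fits of percent remaining.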

SMILES	IC50 (rh integrin α4β7)	half-life at 22 μM [1]	half-life [1]
CC(C)C[C@@H]1NC(=O)[C@H]([C@@H](C)O)NC(=O)[C@H](CC(=O)O)NC(=O)[C@H](CO)NC(=O)[C@H](CCCNC(=N)N)N(C)C(=O)c2ccccc2CSC(C)(C)[C@@H](C(=O)N[C@@H](Cc2ccc3ccccc3c2)C(=O)N[C@H](CCC(=O)O)C(=O)N[C@H](CCCCN)C(N)=O)NC1=O [compound 75] (HELM PEPTIDE1{[meR].S.D.T.L.[Pen].[O=C([C@H](Cc1ccc2ccccc2c1)N[*:1])[*:2]].[dE].[dK].[am]}|CHEM1{[O=C(c1ccccc1C[*:2])[*:1]]}$PEPTIDE1,CHEM1,1:R1-1:R1|PEPTIDE1,CHEM1,6:R3-1:R2$$$V2.0)	< 25 nM	> 180 min	–
CC(C)C[C@@H]1NC(=O)[C@H]([C@@H](C)O)NC(=O)[C@H](CC(=O)O)NC(=O)[C@H](CO)NC(=O)[C@H](CCCNC(=N)N)N(C)C(=O)c2ccccc2CSC(C)(C)[C@@H](C(=O)N[C@@H](Cc2ccc(C(F)(F)F)cc2)C(=O)N[C@@H](CCC(=O)O)C(=O)N[C@H](CCCCN)C(N)=O)NC1=O [compound 76] (HELM PEPTIDE1{[meR].S.D.T.L.[Pen].[O=C([C@H](Cc1ccc(C(F)(F)F)cc1)N[*:1])[*:2]].E.[dK].[am]}|CHEM1{[O=C(c1ccccc1C[*:2])[*:1]]}$PEPTIDE1,CHEM1,1:R1-1:R1|PEPTIDE1,CHEM1,6:R3-1:R2$$$V2.0)	< 25 nM	–	> 180 min
CC(C)C[C@@H]1NC(=O)[C@H]([C@@H](C)O)NC(=O)[C@H](CC(=O)O)NC(=O)[C@H](CO)NC(=O)[C@H](CCCNC(=N)N)N(C)C(=O)c2ccccc2CSC(C)(C)[C@@H](C(=O)N[C@@H](Cc2cccc3ccccc23)C(=O)N[C@@H](CCC(=O)O)C(=O)N[C@H](CCCCN)C(N)=O)NC1=O [compound 77] (HELM PEPTIDE1{[meR].S.D.T.L.[Pen].[O=C([C@H](Cc1cccc2ccccc12)N[*:1])[*:2]].E.[dK].[am]}|CHEM1{[O=C(c1ccccc1C[*:2])[*:1]]}$PEPTIDE1,CHEM1,1:R1-1:R1|PEPTIDE1,CHEM1,6:R3-1:R2$$$V2.0)	< 25 nM	–	88 min
CC(C)C[C@@H]1NC(=O)[C@H]([C@@H](C)O)NC(=O)[C@H](CC(=O)O)NC(=O)[C@H](CO)NC(=O)[C@H](CCCNC(=N)N)N(C)C(=O)c2ccccc2CSC(C)(C)[C@@H](C(=O)N[C@@H](Cc2ccc(O)cc2)C(=O)N[C@@H](CCC(=O)O)C(=O)N[C@H](CCCCN)C(N)=O)NC1=O [compound 78] (HELM PEPTIDE1{[meR].S.D.T.L.[Pen].Y.E.[dK].[am]}|CHEM1{[O=C(c1ccccc1C[*:2])[*:1]]}$PEPTIDE1,CHEM1,1:R1-1:R1|PEPTIDE1,CHEM1,6:R3-1:R2$$$V2.0)	< 25 nM	78 min	–
